Several values for one entry are separate records, joined by “and”; a condition that tells them apart may be missing. Equal entries are not always repeated. Bounds are passed on as bounds.

For one series, the target named is T1, rat mGluR5 receptor (Rattus norvegicus, UniProt P31424).
T1 construct: expressed in transfected cells
Description: mGluR5 assay on HEK-expressing rat mGluR5 (fluorescent cell based Ca2+ mobilization assay). Conditions: HEK-293 cells stably expressing rat mGluR5; no co-addition of glutamate; mean of at least three independent experiments in duplicate; read-out: Ca++ Flux (mean EC50). As for the experimental part: Positive functional expression of HEK-293 cells stably expressing rat mGluR5 receptor was determined by measuring intracellular Ca^2+ changes using a Fluorometric Imaging Plate Reader (FLIPR, Molecular Devices, Sunnyvale, Calif.) in response to glutamate or selective known mGluR5 agonists and antagonists. Rat mGluR5 RT-PCR products in HEK-293 cells were sequenced and found 100% identical to rat mGluR5 Genbank reference sequence (NM_017012). HEK-293 cells expressing rmGluR5 were maintained in media containing DMEM, dialyzed Fetal Bovine Serum (10%), Glutamax™ (2 mM), Penicillin (100 units/ml), Streptomycin (100 μg/ml), Geneticin (100 μg/ml) and Hygromycin-B (40 μg/ml) at 37° C./5% CO2.
After one day of incubation, cells were washed with assay buffer containing: 142 mM NaCl, 6 mM KCl, 1 mM […], 1 mM CaCl2, 20 mM HEPES, 1 g/L glucose, 0.125 mM sulfinpyrazone, pH 7.4. After 60 min of loading with 4 uM Fluo-4 (TefLabs, Austin, Tex.), the cells were washed three times with 50 μl of PBS Buffer and resuspended in 45 μl of assay Buffer. The plates were then transferred to a Fluorometric Imaging Plate Reader (FLIPR, Molecular Devices, Sunnyvale, Calif.) for the assessment of intracellular calcium flux. After monitoring the baseline fluorescence for 10 seconds, increasing concentrations of representative compound (from 0.01 to 60 μM) of the present invention diluted in Assay Buffer (15 μl of 4× dilutions) was added to the cell. The final DMSO concentration in the assay was 0.3%. In each experiment, fluorescence was then monitored as a function of time for 3 minutes and the data analyzed using Microsoft Excel and GraphPad Prism. Each data point was also measured two times.
Under these experimental conditions, this HEK-rat mGluR5 cell line is able to directly detect positive allosteric modulators without the need of co-addition of glutamate or mGluR5 agonist.
The concentration-response curves of representative compounds of the present invention were generated using the Prism GraphPad software (Graph Pad Inc, San Diego, USA). The curves were fitted to a four-parameter logistic equation:
(Y=Bottom+(Top−Bottom)/(1+10̂((LogEC50−X)*Hill Slope)
allowing determination of EC50 values.
The Table 1 below represents the mean EC50 obtained from at least three independent experiments of selected molecules performed in duplicate.
On the technique in general: A change in cytosolic calcium serves as a functional read-out for many receptors and channels.

T1 sequence (P31424 21-1171 isoform P31424-2 limits assumed): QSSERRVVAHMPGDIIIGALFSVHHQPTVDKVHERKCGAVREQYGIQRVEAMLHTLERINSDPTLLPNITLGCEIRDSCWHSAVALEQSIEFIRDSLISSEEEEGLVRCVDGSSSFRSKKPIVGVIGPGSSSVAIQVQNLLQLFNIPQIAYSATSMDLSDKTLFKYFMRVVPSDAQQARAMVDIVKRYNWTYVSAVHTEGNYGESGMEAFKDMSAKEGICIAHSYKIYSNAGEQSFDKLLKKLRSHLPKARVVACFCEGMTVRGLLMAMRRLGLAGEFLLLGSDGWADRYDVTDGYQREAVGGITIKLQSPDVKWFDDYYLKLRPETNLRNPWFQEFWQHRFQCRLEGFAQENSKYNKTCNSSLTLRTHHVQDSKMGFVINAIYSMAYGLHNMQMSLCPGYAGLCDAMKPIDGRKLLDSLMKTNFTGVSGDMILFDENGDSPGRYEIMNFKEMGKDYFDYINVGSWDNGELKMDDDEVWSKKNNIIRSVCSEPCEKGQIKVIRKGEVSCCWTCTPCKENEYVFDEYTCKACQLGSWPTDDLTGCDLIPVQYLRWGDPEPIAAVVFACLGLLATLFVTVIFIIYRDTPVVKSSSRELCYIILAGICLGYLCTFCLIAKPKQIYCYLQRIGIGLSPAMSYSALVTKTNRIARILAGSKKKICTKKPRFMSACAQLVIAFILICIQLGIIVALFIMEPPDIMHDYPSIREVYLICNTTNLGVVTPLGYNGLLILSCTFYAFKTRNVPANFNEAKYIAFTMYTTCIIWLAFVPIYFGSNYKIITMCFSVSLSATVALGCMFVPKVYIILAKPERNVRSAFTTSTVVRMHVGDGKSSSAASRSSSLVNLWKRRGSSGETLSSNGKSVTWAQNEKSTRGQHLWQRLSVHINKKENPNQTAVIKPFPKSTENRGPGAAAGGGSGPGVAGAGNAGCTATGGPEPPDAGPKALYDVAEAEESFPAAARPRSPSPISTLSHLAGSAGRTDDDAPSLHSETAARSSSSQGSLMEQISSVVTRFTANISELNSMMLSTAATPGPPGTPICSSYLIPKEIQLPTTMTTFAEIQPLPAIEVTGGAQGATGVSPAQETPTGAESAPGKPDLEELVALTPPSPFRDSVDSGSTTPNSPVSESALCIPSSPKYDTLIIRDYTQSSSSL

By melting point is commonly meant the temperature of the solid-liquid transition. One may read the EC50 as the concentration giving half of the maximal effect. In turn, `O=C(c1ccc(F)c(F)c1)N1CCC[C@H](c2nc(-c3ncc[nH]3)no2)C1` [Example 25, (3,4-Difluoro-phenyl)-{(S)-3-[3-(1H-imidazol-2-yl)-[1,2,4]oxadiazol-5-yl]-piperidin-1-yl}-methanone] returned a melting point of 156 to 157 °C. For the same compound, at rat mGluR5 receptor, the 50% effective concentration (EC50) lay in the range of 1000 to 10000 nM.

Turning to `Cc1cc(F)ccc1C(=O)N1CCCC(c2noc(-c3ccc[nH]3)n2)C1` (stereo not drawn) [Example 9, (4-Fluoro-2-methyl-phenyl)-{3-[5-(1H-pyrrol-2-yl)-[1,2,4]oxadiazol-3-yl]-piperidin-1-yl}-methanone], the melting point stood at 203 °C. Moreover, the EC50 at rat mGluR5 receptor is 1000 to 10000 nM.

`N#Cc1c[nH]c(-c2nc([C@H]3CCCN(C(=O)c4ccc(F)cc4)C3)no2)c1` [Example 72, (4-Fluoro-phenyl)-{(S)-3-[5-(4-cyano-1H-pyrrol-2-yl)-[1,2,4]oxadiazol-3-yl]-piperidin-1-yl}-methanone] registered a melting point of 204.8 to 205.6 °C. The EC50 on rat mGluR5 receptor lay within 1000 to 10000 nM.

The compound `O=C(c1ccc(F)c(F)c1)N1CCCC(c2noc(-c3ncc[nH]3)n2)C1` (stereo not drawn) [Example 18, (3,4-Difluoro-phenyl)-{3-[5-(1H-imidazol-2-yl)-[1,2,4]oxadiazol-3-yl]-piperidin-1-yl}-methanone] gave a melting point of 148.5 to 148.9 °C. Also, the EC50 on rat mGluR5 receptor lay within 1000 to 10000 nM.

`Cc1oncc1C(=O)N1CCC[C@H](c2nc(-c3ccc[nH]3)no2)C1` [Example 20, (5-Methyl-isoxazol-4-yl)-{(S)-3-[3-(1H-pyrrol-2-yl)-[1,2,4]oxadiazol-5-yl]-piperidin-1-yl}-methanone] showed a melting point of 125 to 127 °C. In addition, the 50% effective concentration (EC50) on rat mGluR5 receptor is over 10000 nM.

`Cc1oncc1C(=O)N1CCCC(c2noc(-c3cc4ccccc4[nH]3)n2)C1` (stereo not drawn) [Example 26, {3-[5-(1H-Indol-2-yl)-[1,2,4]oxadiazol-3-yl]-piperidin-1-yl}-(5-methyl-isoxazol-4-yl)-methanone] displayed a melting point of 175.6 to 177.2 °C. Moreover, on rat mGluR5 receptor, the EC50 fell in the range of 1000 to 10000 nM.

Turning to `O=C(c1ccc(F)cc1)N1CCC[C@H](c2noc(-c3cc([N+](=O)[O-])c[nH]3)n2)C1` [Example 36, (4-Fluoro-phenyl)-{(S)-3-[5-(4-nitro-1H-pyrrol-2-yl)-[1,2,4]oxadiazol-3-yl]-piperidin-1-yl}-methanone], the melting point was in the range of 157 to 158 °C. For the same compound, the 50% effective concentration (EC50) at rat mGluR5 receptor is under 1000 nM.

`O=C(c1ccc(F)nc1)N1CCC[C@H](c2nc(-c3ccc[nH]3)no2)C1` [Example 4, (6-Fluoro-pyridin-3-yl)-{(S)-3-[3-(1H-pyrrol-2-yl)-[1,2,4]oxadiazol-5-yl]-piperidin 1-yl}-methanone]: the melting point lay in the range of 131 to 132 °C. Besides, the EC50 on rat mGluR5 receptor is 1000 to 10000 nM.

`O=C(c1ccc(F)cc1)N1CCC[C@H](c2noc(-c3cc(C(F)(F)F)c[nH]3)n2)C1` [Example 76, (4-Fluoro-phenyl)-{(S)-3-[5-(4-trifluoromethyl-1H-pyrrol-2-yl)-[1,2,4]oxadiazol-3-yl]-piperidin-1-yl}-methanone] yielded a melting point of 183.5 °C. For the same compound, the EC50 at rat mGluR5 receptor was over 10000 nM.

`O=C(c1ccc(F)nc1)N1CCCC(c2noc(-c3cc4ccccc4[nH]3)n2)C1` (stereo not drawn) [Example 23, (6-Fluoro-pyridin-3-yl)-{3-[5-(1H-indol-2-yl)-[1,2,4]oxadiazol-3-yl]-piperidin-1-yl}-methanone] came in with a melting point of 163.1 to 164.3 °C. Also, the EC50 on rat mGluR5 receptor fell in the range of 1000 to 10000 nM.

For the compound `O=C(c1ccc(F)cc1)N1CCC[C@@H](c2nc(-c3ccc[nH]3)no2)C1` [Example 37, (4-Fluoro-phenyl)-{(R)-3-[3-(1H-pyrrol-2-yl)-[1,2,4]oxadiazol-5-yl]-piperidin-1-yl}-methanone], the melting point fell in the range of 132 to 133 °C. Besides, on rat mGluR5 receptor, the EC50 fell in the range of 1000 to 10000 nM.

Regarding `Cc1c[nH]c(-c2noc([C@H]3CCCN(C(=O)c4ccc(F)cc4)C3)n2)c1` [Example 31, (4-Fluoro-phenyl)-{(S)-3-[3-(4-methyl-1H-pyrrol-2-yl)-[1,2,4]oxadiazol-5-yl]-piperidin-1-yl}-methanone], the melting point is 188 to 190 °C. Also, the concentration for a half-maximal effect (EC50) on rat mGluR5 receptor is under 1000 nM.

In turn, `O=C(c1ccc(F)cc1)N1CCC[C@H](c2nc(-c3cc(F)c[nH]3)no2)C1` [Example 50, (4-Fluoro-phenyl)-{(S)-3-[3-(4-fluoro-1H-pyrrol-2-yl)-[1,2,4]oxadiazol-5-yl]-piperidin-1-yl}-methanone] returned a melting point of 146.5 to 147.2 °C. On rat mGluR5 receptor, the 50% effective concentration (EC50) is under 1000 nM.

`O=C(c1ccc(F)nc1)N1CCC[C@H](c2noc(-c3cc(C(F)(F)F)c[nH]3)n2)C1` [Example 78, (6-Fluoro-pyridin-3-yl)-{(S)-3-[5-(4-trifluoromethyl-1H-pyrrol-2-yl)-[1,2,4]oxadiazol-3-yl]-piperidin-1-yl}-methanone] registered a melting point of 165.7 °C.

Consider `Cc1c[nH]c(-c2noc([C@H]3CCCN(C(=O)c4ccncc4F)C3)n2)c1` [Example 71, (3-Fluoro-pyridin-4-yl)-{(S)-3-[3-(4-methyl-1H-pyrrol-2-yl)-[1,2,4]oxadiazol-5-Yl]-piperidin-1-yl}-methanone], for which the 50% effective concentration (EC50) on rat mGluR5 receptor is 1000 to 10000 nM.

Take `O=C(c1ccnc(F)c1)N1CCC[C@H](c2nc(-c3cc(F)c[nH]3)no2)C1` [Example 53, (2-Fluoro-pyridin-4-yl)-{(S)-3-[3-(4-fluoro-1H-pyrrol-2-yl)-[1,2,4]oxadiazol-5-yl]-piperidin-1-yl}-methanone]: at rat mGluR5 receptor, the half-maximal effective concentration (EC50) was under 1000 nM.

As to `O=C(c1ccnc(F)c1)N1CCC[C@H](c2noc(-c3cc(F)c[nH]3)n2)C1` [Example 60, (2-Fluoro-pyridin-4-yl)-{(s)-3-[5-(4-fluoro-1H-pyrrol-2-yl)-[1,2,4]oxadiazol-3-yl]-piperidin-1-yl}-methanone], at rat mGluR5 receptor, the EC50 was under 1000 nM.

Take `Cc1ccc(-c2nc([C@H]3CCCN(C(=O)c4ccc(F)cc4)C3)no2)[nH]1` [Example 38, (4-Fluoro-phenyl)-{(S)-3-[5-(5-methyl-1H-pyrrol-2-yl)-[1,2,4]oxadiazol-3-yl]-piperidin-1-yl}-methanone]: the concentration for a half-maximal effect (EC50) on rat mGluR5 receptor is 1000 to 10000 nM.

On to `O=C(c1ccncc1F)N1CCC[C@H](c2noc(-c3cc(C(F)(F)F)c[nH]3)n2)C1` [Example 77, (3-Fluoro-pyridin-4-yl)-{(S)-3-[5-(4-trifluoromethyl-1H-pyrrol-2-yl)[1,2,4]oxadiazol-3-yl]-piperidin-1-yl}-methanone], for which the concentration giving a half-maximal response (EC50) on rat mGluR5 receptor was in the range of 1000 to 10000 nM.

Consider `O=C(c1ccc(F)cc1F)N1CCC[C@H](c2nc(-c3ccc[nH]3)no2)C1` [Example 2, (2,4-Difluoro-phenyl)-((S)-3-[3-(1H-pyrrol-2-yl)-[1,2,4]oxadiazol-5-yl]-piperidin-1-yl)-methanone], for which, at rat mGluR5 receptor, the EC50 is under 1000 nM.

Take `O=C(c1ccnc(F)c1)N1CCC[C@H](c2nc(-c3cc(Cl)c[nH]3)no2)C1` [Example 66, {(S)-3-[3-(4-Chloro-1H-pyrrol-2-yl)-[1,2,4]oxadiazol-5-yl]-piperidin-1-yl}-(2-fluoro-pyridin-4-yl)-methanone]: the EC50 on rat mGluR5 receptor lay in the range of 1000 to 10000 nM.

In the case of `Cc1c[nH]c(-c2noc([C@H]3CCCN(C(=O)c4ccc(F)nc4)C3)n2)c1` [Example 33, (6-Fluoro-pyridin-3-yl)-{(S)-3-[3-(4-methyl-1H-pyrrol-2-yl)-[1,2,4]oxadiazol-5-yl]-piperidin-1-yl}-methanone], at rat mGluR5 receptor, the concentration giving a half-maximal response (EC50) was under 1000 nM.

For the compound `O=C(c1ccc(F)c(F)c1)N1CCC[C@H](c2nc(-c3ccc[nH]3)no2)C1` [Example 3, (3,4-Difluoro-phenyl)-{(S)-3-[3-(1H-pyrrol-2-yl)-[1,2,4]oxadiazol-5-yl]-piperidin-1-yl}-methanone], the concentration for a half-maximal effect (EC50) at rat mGluR5 receptor is under 1000 nM.

On to `O=C(c1ccc(F)nc1)N1CCC[C@H](c2noc(-c3cc(Br)c[nH]3)n2)C1` [Example 44, {(S)-3-[5-(4-Bromo-1H-pyrrol-2-yl)-[1,2,4]oxadiazol-3-yl]-piperidin-1-yl}-(6-fluoro-pyridin-3-yl)-methanone], for which the half-maximal effective concentration (EC50) on rat mGluR5 receptor was < 1000 nM and > 10000 nM.

`O=C(c1ccc(F)nc1)N1CCC[C@H](c2nc(-c3cc(F)c[nH]3)no2)C1` [Example 52, (6-Fluoro-pyridin-3-yl)-{(S)-3-[3-(4-fluoro-1H-pyrrol-2-yl)-[1,2,4]oxadiazol-5-yl]-piperidin-1-yl}-methanone]: the EC50 on rat mGluR5 receptor was under 1000 nM.

Take `Cc1c[nH]c(-c2nc([C@H]3CCCN(C(=O)c4cnoc4C)C3)no2)c1` [Example 29, (5-Methyl-isoxazol-4-yl)-{(S)-3-[5-(4-methyl-1H-pyrrol-2-yl)-[1,2,4]oxadiazol-3-yl]-piperidin-1-yl}-methanone]: the concentration giving a half-maximal response (EC50) on rat mGluR5 receptor is under 1000 nM.

Values taken from US20090203737A1, “Pyrrole Derivatives as Positive Allosteric Modulators of Metabotropic Receptors” (priority 2005, published 2009).
